What follows are compounds tested against T1, Gag-Pol polyprotein [588-1027]/[588-1147] (Human immunodeficiency virus 1, UniProt P04585) (assay: HIV-1 RT Assay). Details: not given.
T1 construct: 588-1027; 588-1147

Q: `COC(=O)c1cc(C(=CCCCC(=O)N2CCCCC2)c2cc(Cl)c(OC)c(C(=O)OC)c2)cc(Cl)c1OC` [6,6-Bis(3-chloro-4-methoxy-5-methoxycarbonylphenyl)-1-piperidylhex-5-en-1-one] was tested. Which IC50 did it give?
A: Its IC50 is > 100 µM.

Q: With `COC(=O)c1cc(C(=CCCCC(OC)OC)c2cc(Cl)c(OC)c(C(=O)OC)c2)cc(Cl)c1OC` [Alkenyldiarylmethane (ADAM) 38a] as the compound, how does the IC50 read?
A: The IC50 was > 100 µM.

Q: For `COC(=O)c1cc(C(=CCCNC(C)=O)c2cc(Cl)c(OC)c(C(=O)OC)c2)cc(Cl)c1OC` [Methyl 5-{4-(Acetylamino)-1-[3-chloro-4-methoxy-5-(methoxycarbonyl)phenyl]but-1-enyl}-3-chloro-2-methoxybenzoate], which IC50 is on record?
A: The IC50 was > 100 µM.

Q: For `COC(=O)c1cc(C(=CCCCC(=O)OCC[Si](C)(C)C)c2cc(C)c(OC)c(C(=O)OC)c2)cc(C)c1OC` [methyl 2-methoxy-5-{1-[4-methoxy-3-(methoxycarbonyl)-5-methylphenyl]-6-oxo-6-[2-(trimethylsilyl)ethoxy]hex-1-en-1-yl}-3-methylbenzoate], which IC50 is on record?
A: Its IC50 is > 100 µM.

Q: With `CCNC(=O)NCCC=C(c1cc(Cl)c(OC)c(C(=O)OC)c1)c1cc(Cl)c(OC)c(C(=O)OC)c1` [methyl 3-chloro-5-{1-[3-chloro-4-methoxy-5-(methoxycarbonyl)phenyl]-4-[(ethylcarbamoyl)amino]but-1-en-1-yl}-2-methoxybenzoate] as the compound, how does the IC50 read?
A: Its IC50 is > 100 µM.

Q: With `CNC(=S)NCCC=C(c1cc(Cl)c(OC)c(C(=O)OC)c1)c1cc(Cl)c(OC)c(C(=O)OC)c1` [methyl 3-chloro-5-{1-[3-chloro-4-methoxy-5-(methoxycarbonyl)phenyl]-4-[(methylcarbamothioyl)amino]but-1-en-1-yl}-2-methoxybenzoate] as the compound, how does the IC50 read?
A: Its IC50 is > 100 µM.

Same assay, conditions: pH 7.9

Q: For `COC(=O)c1cc(C(=CCCCc2ccccc2)c2cc(Br)c(OC)c(C(=O)OC)c2)cc(Br)c1OC` [1,1-Bis[3-bromo-4-methoxy-5-(methoxycarbonyl)phenyl]-5-phenyl-1-pentene], which IC50 is on record?
A: The IC50 was > 100 µM.

Q: Which IC50 does the source give for `COC(=O)c1cc(C(=CCCCc2ccccc2)c2cc(Cl)c(OC)c(C(=O)OC)c2)cc(Cl)c1OC` [1,1-Bis[3-chloro-4-methoxy-5-(methoxycarbonyl)phenyl]-5-phenyl-1-pentene] here?
A: The IC50 was > 100 µM.

Q: Which IC50 does the source give for `COC(=O)CCCC=C(c1cc(C(=O)OC)c(OC)c(C(F)(F)F)c1)c1cc(C(=O)OC)c(OC)c(C(F)(F)F)c1` [Alkenyldiarylmethane (ADAM) 18a] here?
A: Its IC50 is > 200 µM.

Q: Which IC50 does the source give for `COC(=O)c1cc(C(=CCCCC(=O)OC(C)C)c2cc(Cl)c(OC)c(C(=O)OC)c2)cc(Cl)c1OC` [Alkenyldiarylmethane (ADAM) 25a] here?
A: The IC50 was > 100 µM.

— BindingDB's records for doi:10.1021/jm010212m (Purdue University, 2001)
